Legend:
[1] = target: T1, SF3b complexes (Homo sapiens, UniProt O75533+Q7RTV0); assay: Scintillation proximity assay (SPA) with [3H]-labelled pladienolide probe; assay type: binding; details: wt SF3B1, read-out: SPA (wt SF3B1 cells) IC50
T1 construct: endogenous in cells
Summary of the method: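 SF3b complexes immunoprecipitated from nuclear extracts with anti-SF3B1 antibody on anti-mouse PVT SPA beads. Beads pre-incubated 30 min with varying PB or PB-OH, then 2.5 nM [3H]-PB added for 30 min; scintillation signal read and fit by non-linear regression.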

[2] = tested on: WiDr cells (colon cancer cells; wildtype SF3B1); assay: Cell viability assay (CellTiter-Glo, 72 hr), WiDr cells; assay type: cell-based; details: Homo sapiens; WiDr cells (wildtype SF3B1); read-out: WiDr GI50
Summary of the method: (§1)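 Cells at 2000/well were exposed to 9 compound concentrations (0.1% DMSO) in duplicate or triplicate for 72 hr at 37 °C. ATP was read by CellTiter-Glo against a time-zero plate and DMSO control growth. Percent growth/viability was plotted against concentration to give Emax; negative values indicate lethality.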

[3] = tested on: Panc 05.04 cells (pancreatic cancer cells; Q699H and K700E mutations in SF3B1); assay: Cell viability assay (CellTiter-Glo, 72 hr), Panc 05.04 cells; assay type: cell-based; details: Panc 05.04 cells (mutant SF3B1); for Emax: maximum achievable response in tested dose range, negative value = cellular lethality, read-out: Panc 05.04 (mt SF3B1 cells) Emax (%); for GI50: read-out: Panc 05.04 (mt SF3B1 cells), GI50
Summary of the method: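 Panc 05.04 cells treated 72 hr at 37 °C with 9 compound concentrations (0.1% DMSO), duplicate or triplicate. ATP read by CellTiter-Glo; growth inhibition/viability calculated against a time-zero plate and DMSO control growth. Emax is the maximal response over the tested range, negative values meaning lethality.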

[4] = tested on: WiDr-R cells (colon cancer cells; chemically-induced SF3B1 R1074H mutant); assay: Cell viability assay (CellTiter-Glo, 72 hr), resistant WiDr-R cells (counter-screen); assay type: cell-based; details: WiDr-R cells (SF3B1 R1074H mutation, resistant); read-out: WiDr-R GI50
Summary of the method: as §1

SMILES | IC50 [1] | GI50 [2] | Emax [3] | GI50 [3] | GI50 [4]
C/C(=C\C=C\[C@@H](C)CNC(=O)N1CCC[C@H]1CO)[C@H]1OC(=O)C[C@H](O)CC[C@@](C)(O)[C@@H](OC(=O)N2CCN(C3CCCCCC3)CC2)/C=C/[C@@H]1C | 0.0408 µM | 0.0959 µM | -85% | 0.0773 µM | > 1 µM
C/C(=C\C=C\[C@@H](C)COC(=O)N1CCC[C@H]1CO)[C@H]1OC(=O)CCCCC[C@@H](OC(=O)N2CCN(CC(F)(F)F)CC2)/C=C/[C@@H]1C | 0.113 µM | 0.0655 µM | -85.6% | 0.0547 µM | > 1 µM
C/C(=C\C=C\[C@@H](C)c1ccccn1)[C@H]1OC(=O)C[C@H](O)CC[C@@](C)(O)[C@@H](OC(=O)N2CCN(C3CCCC3)CC2)/C=C/[C@@H]1C | 0.00876 µM | 0.0196 µM | -89.5% | 0.0279 µM | > 1 µM
C/C(=C\C=C\C(C)(C)COC(=O)N1CCCC1)[C@H]1OC(=O)C[C@H](O)CC[C@@](C)(O)[C@@H](OC(=O)N2CCN(C3CCCCCC3)CC2)/C=C/[C@@H]1C | 0.00514 µM | 0.00346 µM | -79.7% | 0.00443 µM | 0.221 µM
COC(=O)CC[C@H](C)/C=C/C=C(\C)[C@H]1OC(=O)C[C@H](O)CC[C@@](C)(O)[C@@H](OC(=O)N2CCN(C3CCCCCC3)CC2)/C=C/[C@@H]1C | 0.00454 µM | 0.103 µM | -96.9% | 0.0513 µM | > 1 µM
C/C(=C\C=C\C(C)c1cccnn1)[C@H]1OC(=O)C[C@H](O)CC[C@@](C)(O)[C@@H](OC(=O)N2CCN(C3CCCCCC3)CC2)/C=C/[C@@H]1C (stereo partly shown) | 0.00338 µM | 0.0151 µM | -94.7% | 0.022 µM | > 1 µM
COC[C@@H]1CCCN1C(=O)OC[C@H](C)/C=C/C=C(\C)[C@H]1OC(=O)C[C@H](O)CC[C@@](C)(O)[C@@H](OC(=O)N2CCN(C3CCCCCC3)CC2)/C=C/[C@@H]1C | 0.0168 µM | 0.0291 µM | -89.1% | 0.0119 µM | > 1 µM
C/C(=C\C=C\[C@@H](C)COC(=O)N1CC[C@@H](O)C1)[C@H]1OC(=O)CCCCC[C@@H](OC(=O)N2CCN(C3CCCCCC3)CC2)/C=C/[C@@H]1C | 0.0402 µM | 0.0455 µM | -81.6% | 0.0352 µM | > 1 µM
CC(=O)O[C@H]1/C=C/[C@H](C)[C@@H](/C(C)=C/C=C/[C@@H](C)COC(=O)N2CCC2)OC(=O)C[C@H](O)CC[C@@]1(C)O | 0.0107 µM | 0.138 µM | -91.8% | 0.0447 µM | > 10 µM
C/C(=C\C=C\C(C)c1ccncc1)[C@H]1OC(=O)C[C@H](O)CC[C@@](C)(O)[C@@H](OC(=O)N2CCN(C3CCCCCC3)CC2)/C=C/[C@@H]1C (stereo partly shown) | 0.00274 µM | 0.014 µM | -95.1% | 0.00663 µM | > 1 µM
CCCN(C)C(=O)OC[C@H](C)/C=C/C=C(\C)[C@H]1OC(=O)C[C@H](O)CC[C@@](C)(O)[C@@H](OC(C)=O)/C=C/[C@@H]1C | 0.00622 µM | 0.0391 µM | -91.8% | 0.0425 µM | > 1 µM
C/C(=C\C=C\[C@@H](C)COC(=O)N1CC[C@@H](N(C)C)C1)[C@H]1OC(=O)C[C@H](O)CC[C@@](C)(O)[C@@H](OC(=O)N2CCN(C3CCCCCC3)CC2)/C=C/[C@@H]1C | 0.0097 µM | 0.0302 µM | -85.4% | 0.033 µM | 3.99 µM
C/C(=C\C=C\[C@@H](C)COC(=O)N1CCCC1)[C@H]1OC(=O)C[C@H](O)CC[C@](C)(O)[C@@H](OC(=O)N2CCN(C)CC2)/C=C/[C@@H]1C | 0.00569 µM | 0.00712 µM | -83.7% | 0.00314 µM | > 1 µM
C/C(=C\C=C\[C@@H](C)COC(=O)N1CCC[C@H]1C(=O)O)[C@H]1OC(=O)C[C@H](O)CC[C@@](C)(O)[C@@H](OC(=O)N2CCN(C3CCCCCC3)CC2)/C=C/[C@@H]1C | 0.0361 µM | > 1 µM | 35% | 2.64 µM | > 1 µM
CCCNC(=O)OC[C@H](C)/C=C/C=C(\C)[C@H]1OC(=O)C[C@H](O)CC[C@@](C)(O)[C@@H](OC(C)=O)/C=C/[C@@H]1C | 0.473 µM | 1.94 µM | 40.5% | 4.59 µM | > 10 µM
C/C(=C\C=C\[C@@H](C)c1ccccn1)[C@H]1OC(=O)C[C@H](O)CC[C@H](C)[C@@H](OC(=O)N(C)C)/C=C/[C@@H]1C | 0.142 µM | 0.479 µM | 24% | 1.72 µM | > 10 µM

SMILES | IC50 [1] | GI50 [2] | Emax [3] | GI50 [3] | GI50 [4]
CC(=O)O[C@H]1/C=C/[C@H](C)[C@@H](/C(C)=C/C=C/[C@@H](C)COC(=O)N2CCC[C@@H]2C)OC(=O)C[C@H](O)CC[C@@]1(C)O | 0.0273 µM | 0.0381 µM | -90% | 0.0526 µM | > 10 µM
C/C(=C\C=C\[C@@H](C)COC(=O)N1CCCC1)[C@H]1OC(=O)C[C@H](O)CC[C@H](C)[C@@H](OC(=O)N2CCN(C)CC2)/C=C/[C@@H]1C | 0.00296 µM | 0.00381 µM | -86% | 0.00136 µM | > 1 µM
C/C(=C\C=C\[C@@H](C)c1ccccn1)[C@H]1OC(=O)C[C@H](O)CC[C@H](C)[C@@H](OC(=O)N2CCN(C3CCCCCC3)CC2)/C=C/[C@@H]1C | 0.0106 µM | 0.0332 µM | -96.3% | 0.044 µM | 2.43 µM
C/C(=C\C=C\[C@@H](C)c1ncccn1)[C@H]1OC(=O)C[C@H](O)CC[C@@](C)(O)[C@@H](OC(=O)N2CCN(C3CCCCCC3)CC2)/C=C/[C@@H]1C | 0.0081 µM | 0.0336 µM | -92.9% | 0.0295 µM | > 1 µM
C/C(=C\C=C\[C@@H](C)COC(=O)N1CC[C@@H](O)C1)[C@H]1NC(=O)CCCCC[C@@H](OC(=O)N2CCN(C)CC2)/C=C/[C@@H]1C | 0.267 µM | 0.376 µM | 19.1% | 1.18 µM | > 10 µM
C/C(=C\C=C\[C@@H](C)COC(=O)N1CCCC1)[C@H]1OC(=O)C[C@H](O)CC[C@@](C)(O)[C@@H](OC(=O)N2CCN(C)CC2)/C=C/[C@@H]1C | 0.0021 µM | 0.00383 µM | -90.3% | 0.00305 µM | > 1 µM
CC(=O)O[C@H]1/C=C/[C@H](C)[C@@H](/C(C)=C/C=C/[C@@H](C)COC(=O)N2CCCCC2)OC(=O)C[C@H](O)CC[C@@]1(C)O | 0.015 µM | 0.0497 µM | -74.6% | 0.0822 µM | > 10 µM
C/C(=C\C=C\C(C)c1cccc(N2CCCC2)n1)[C@H]1OC(=O)C[C@H](O)CC[C@@](C)(O)[C@@H](OC(=O)N2CCN(C3CCCCCC3)CC2)/C=C/[C@@H]1C (stereo partly shown) | 0.0219 µM | 0.32 µM | -95.3% | 0.122 µM | > 1 µM
C/C(=C\C=C\[C@@H](C)COC(=O)N1CCCC1(C)C)[C@H]1OC(=O)C[C@H](O)CC[C@@](C)(O)[C@@H](OC(=O)N2CCN(C)CC2)/C=C/[C@@H]1C | 0.00373 µM | 0.00961 µM | -93.7% | 0.00782 µM | > 1 µM
C/C(=C\C=C\[C@H](C)c1ncccn1)[C@H]1OC(=O)C[C@H](O)CC[C@@](C)(O)[C@@H](OC(=O)N2CCN(C3CCCCCC3)CC2)/C=C/[C@@H]1C | 0.00657 µM | 0.0381 µM | -93.1% | 0.0345 µM | > 1 µM
C/C(=C\C=C\[C@@H](C)c1ccccn1)[C@H]1OC(=O)CCCCC[C@@H](OC(=O)N(C)C)/C=C/[C@@H]1C | > 1.2 µM | 1.06 µM | 48.2% | 5.79 µM | 7.76 µM
CC(=O)O[C@H]1/C=C/[C@H](C)[C@@H](/C(C)=C/C=C/[C@@H](C)COC(=O)N2CCC[C@@H]2CO)OC(=O)C[C@H](O)CC[C@@]1(C)O | 0.0804 µM | 0.0247 µM | -83.4% | 0.0351 µM | > 10 µM
C/C(=C\C=C\[C@@H](C)COC(=O)N1CCCC1)[C@H]1OC(=O)CCCCC[C@@H](OC(=O)N2CCN(C)CC2)/C=C/[C@@H]1C | 0.00371 µM | 0.00784 µM | -90.5% | 0.00674 µM | 2.44 µM
C/C(=C\C=C\C(C)c1ncccn1)[C@H]1OC(=O)C[C@H](O)CC[C@@](C)(O)[C@@H](OC(=O)N2CCN(C3CCCCCC3)CC2)/C=C/[C@@H]1C (stereo partly shown) | 0.0119 µM | 0.0459 µM | -91.6% | 0.031 µM | > 1 µM
C/C(=C\C=C\[C@@H](C)COC(=O)N1CCCC1)[C@H]1OC(=O)C[C@H](O)CC[C@@](C)(O)[C@@H](OC(=O)N2CCN(C3CCCCCC3)CC2)/C=C/[C@@H]1C | 0.00283 µM | 0.00254 µM | -87.3% | 0.00166 µM | > 1 µM
C/C(=C\C=C\[C@@H](C)COC(=O)N1CCCC1)[C@H]1OC(=O)CCCCC[C@@H](OC(=O)N(C)C)/C=C/[C@@H]1C | 0.0711 µM | 0.135 µM | -94.8% | 0.156 µM | 6.38 µM

From patent publication US11926619B2, “Certain pladienolide compounds and methods of use” (EISAI R&D MANAGEMENT CO., LTD., priority 2018, dated 2024)
